tested on: BT474 (breast cancer cell line); assay: In vitro cytotoxicity by MTT assay, BT474; type: cell-based; settings: Homo sapiens, BT-474, 0.005 μM, 72 h, read-out: % cytotoxicity (100 − % cell survival) of BT474 cell line
Protocol: (§1) The cancer cell line cultures of HEK 293 ([…]), BT474 (breast cancer cell line) and NCI-H226 (lung cancer) were obtained from Pasteur Institute of India, Coonoor, India, and were cultured in RPMI-1640 and 10 % heat-[…] New born calf serum with antibiotics [penicillin ([…]), streptomycin (100 μg/mL) and amphotericin B (25 μg/mL)]. The cells were maintained at 37 °C in a humidified atmosphere with 5 % CO2 and were subcultured twice a week.
(§2) The monolayer cell culture (100 μL) was trypsinized, and the cell count was adjusted to […] using medium containing 10 % new born calf serum. To each well of the 96-well microtitre plate, the diluted cell suspension (approximately 10,000 cells) (0.1 mL) was added and kept for 24 h in incubator at 37 °C in 5 % CO2 atmosphere for cell monolayer formation. After 24 h, when a partial monolayer was formed at the bottom of the well, the supernatant was flicked off, the monolayer was washed once, and different drugs, i.e. synthesized compounds (100 μL), were added to the cells in microtitre plates. The plates were then incubated at 37 °C for 3 days in 5 % CO2 atmosphere, and microscopic examination was carried out and observations recorded every 24 h. After 72 h, the sample solution in the wells was flicked off; MTT dye ([…]) was added to each well; plates were gently shaken and incubated for 4 h at 37 °C in 5 % CO2 incubator. The supernatant was removed and propanol (50 μL) was added; the plates were gently shaken to solubilize the formed formazan. The absorbance was measured using a microplate reader at a wavelength of 490 nm (Edmondson et al., [1988]; Prasad et al., [2005]; Chiruvella et al., [2008]; Chang et al., [2007]).

For `Nc1ccc(S(=O)(=O)Nc2nnc(S(=O)(=O)NC(=O)c3ccccc3)s2)cc1` [Compound 7a], which cytotoxicity at 0.005 µM is on record?
The cytotoxicity at 0.005 µM was 34.1%.

same assay, conditions: Homo sapiens, BT-474, 0.015 μM, 72 h, read-out: % cytotoxicity (100 − % cell survival) of BT474 cell line

For `Nc1ccc(S(=O)(=O)Nc2nnc(S(=O)(=O)NC(=O)c3ccccc3)s2)cc1` [Compound 7a], which cytotoxicity at 0.015 µM is on record?
The cytotoxicity at 0.015 µM was 35%.

same assay, conditions: Homo sapiens, BT-474, 0.045 μM, 72 h, read-out: % cytotoxicity (100 − % cell survival) of BT474 cell line

`Nc1ccc(S(=O)(=O)Nc2nnc(S(=O)(=O)NC(=O)c3ccccc3)s2)cc1` [Compound 7a] was tested. Which cytotoxicity at 0.045 µM did it give?
Its cytotoxicity at 0.045 µM is 36.7%.

same assay, conditions: Homo sapiens, BT-474, 0.13 μM, 72 h, read-out: % cytotoxicity (100 − % cell survival) of BT474 cell line

For `Nc1ccc(S(=O)(=O)Nc2nnc(S(=O)(=O)NC(=O)c3ccccc3)s2)cc1` [Compound 7a], which cytotoxicity at 0.13 µM is on record?
The cytotoxicity at 0.13 µM was 37.8%.

same assay, conditions: Homo sapiens, BT-474, 0.41 μM, 72 h, read-out: % cytotoxicity (100 − % cell survival) of BT474 cell line

`Nc1ccc(S(=O)(=O)Nc2nnc(S(=O)(=O)NC(=O)c3ccccc3)s2)cc1` [Compound 7a] was tested. Which cytotoxicity at 0.41 µM did it give?
The cytotoxicity at 0.41 µM was 38.2%.

same assay, conditions: Homo sapiens, BT-474, 1.23 μM, 72 h, read-out: % cytotoxicity (100 − % cell survival) of BT474 cell line

Which cytotoxicity at 1.23 µM does the source give for `Nc1ccc(S(=O)(=O)Nc2nnc(S(=O)(=O)NC(=O)c3ccccc3)s2)cc1` [Compound 7a] here?
The cytotoxicity at 1.23 µM was 39.5%.

same assay, conditions: Homo sapiens, BT-474, 3.7 μM, 72 h, read-out: % cytotoxicity (100 − % cell survival) of BT474 cell line

Which cytotoxicity at 3.7 µM does the source give for `Nc1ccc(S(=O)(=O)Nc2nnc(S(=O)(=O)NC(=O)c3ccccc3)s2)cc1` [Compound 7a] here?
The cytotoxicity at 3.7 µM was 40.7%.

same assay, conditions: Homo sapiens, BT-474, 11.11 μM, 72 h, read-out: % cytotoxicity (100 − % cell survival) of BT474 cell line

`Nc1ccc(S(=O)(=O)Nc2nnc(S(=O)(=O)NC(=O)c3ccccc3)s2)cc1` [Compound 7a] was tested. Which cytotoxicity at 11.11 µM did it give?
The cytotoxicity at 11.11 µM was 41.8%.

same assay, conditions: Homo sapiens, BT-474, 33.33 μM, 72 h, read-out: % cytotoxicity (100 − % cell survival) of BT474 cell line

Which cytotoxicity at 33.33 µM does the source give for `Nc1ccc(S(=O)(=O)Nc2nnc(S(=O)(=O)NC(=O)c3ccccc3)s2)cc1` [Compound 7a] here?
Its cytotoxicity at 33.33 µM is 43.7%.

same assay, conditions: Homo sapiens, BT-474, 100 μM, 72 h, read-out: % cytotoxicity (100 − % cell survival) of BT474 cell line

For `Nc1ccc(S(=O)(=O)Nc2nnc(S(=O)(=O)NC(=O)c3ccccc3)s2)cc1` [Compound 7a], which cytotoxicity at 100 µM is on record?
Its cytotoxicity at 100 µM is 46.3%.

tested on: NCI-H226 (lung cancer cell line); assay: In vitro cytotoxicity by MTT assay, NCI-H226; type: cell-based; settings: Homo sapiens, NCI-H226, 0.005 μM, 72 h, read-out: % Cytotoxicity (100 − % cell survival) of NCI-H226 cell line
Protocol: as §1, §2

`Nc1ccc(S(=O)(=O)Nc2nnc(S(=O)(=O)NC(=O)c3ccccc3)s2)cc1` [Compound 7a] was tested. Which cytotoxicity at 0.005 µM did it give?
Its cytotoxicity at 0.005 µM is 27.4%.

same assay, conditions: Homo sapiens, NCI-H226, 0.045 μM, 72 h, read-out: % Cytotoxicity (100 − % cell survival) of NCI-H226 cell line

Which cytotoxicity at 0.045 µM does the source give for `Nc1ccc(S(=O)(=O)Nc2nnc(S(=O)(=O)NC(=O)c3ccccc3)s2)cc1` [Compound 7a] here?
Its cytotoxicity at 0.045 µM is 29.2%.

same assay, conditions: Homo sapiens, NCI-H226, 0.13 μM, 72 h, read-out: % Cytotoxicity (100 − % cell survival) of NCI-H226 cell line

With `Nc1ccc(S(=O)(=O)Nc2nnc(S(=O)(=O)NC(=O)c3ccccc3)s2)cc1` [Compound 7a] as the molecule, how does the cytotoxicity at 0.13 µM read?
Its cytotoxicity at 0.13 µM is 29.4%.

same assay, conditions: Homo sapiens, NCI-H226, 0.41 μM, 72 h, read-out: % Cytotoxicity (100 − % cell survival) of NCI-H226 cell line

`Nc1ccc(S(=O)(=O)Nc2nnc(S(=O)(=O)NC(=O)c3ccccc3)s2)cc1` [Compound 7a] was tested. Which cytotoxicity at 0.41 µM did it give?
The cytotoxicity at 0.41 µM was 30.4%.

same assay, conditions: Homo sapiens, NCI-H226, 1.23 μM, 72 h, read-out: % Cytotoxicity (100 − % cell survival) of NCI-H226 cell line

Which cytotoxicity at 1.23 µM does the source give for `Nc1ccc(S(=O)(=O)Nc2nnc(S(=O)(=O)NC(=O)c3ccccc3)s2)cc1` [Compound 7a] here?
The cytotoxicity at 1.23 µM was 32.2%.
